Where only a bound is given, the exact number is not on record here.

Sequence of Cathepsin D (Cat D) (P07339 65-412, species assumed): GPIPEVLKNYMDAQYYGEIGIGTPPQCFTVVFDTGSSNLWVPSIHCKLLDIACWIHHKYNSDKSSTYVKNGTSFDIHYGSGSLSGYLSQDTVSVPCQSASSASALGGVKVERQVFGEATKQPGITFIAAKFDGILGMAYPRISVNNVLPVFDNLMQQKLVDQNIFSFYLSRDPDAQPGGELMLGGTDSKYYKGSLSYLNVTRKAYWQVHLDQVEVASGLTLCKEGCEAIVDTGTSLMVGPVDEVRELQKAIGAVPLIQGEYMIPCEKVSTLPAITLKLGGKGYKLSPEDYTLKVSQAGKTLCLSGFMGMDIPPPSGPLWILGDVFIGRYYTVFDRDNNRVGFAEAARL

The first experiment deals with Cathepsin D (Cat D) (Homo sapiens (Human), UniProt P07339). Kind of experiment: In vitro enzymatic Cathepsin D (Cat D) FRET assay. Conditions: average IC50, cathepsin D enzyme assay; read-out: CatD IC50. Format: biochemical. The procedure:
In Vitro Enzymatic Cathepsin D (Cat D) FRET (Fluorescence Resonance Energy Transfer) Assay
Recombinant Cat D was expressed in CHO cells. The assay buffer for CathepsinD is 0.05 M citrate pH 3.5, 10% DMSO final, 5 mM CHAPS. […] The assays are effectively started by the addition of different FRET substrates (20 nM for Cat D) and the combination is incubated for one hour. The FRET assay is terminated with by addition of Tris buffer, which raises the pH to neutrality, and the fluorescence is determined. The FRET substrate is a peptide with commercially available fluorophore and quencher, on opposite sides of the BACE cleavage site. […] Proteolytic cleavage of the FRET substrate releases quenching of fluorescence (Cat D excitation 500 nm and emission 580 nm).
In addition, the cathepsin D and cathepsin E assays are described in PCT publication WO2011069934.
Take `COc1cnc2c(Nc3cc(F)c(F)c([C@]4(C)C[C@@H](C(F)(F)F)OC(N)=N4)c3)nccc2n1` [Example 178, (4S,6S)-4-(2,3-difluoro-5-((2-methoxypyrido[3,4-b]pyrazin-5-yl)amino)phenyl)-4-methyl-6-(trifluoromethyl)-5,6-dihydro-4H-1,3-oxazin-2-amine]: the IC50 (in general, the point on the concentration scale where inhibition reaches its midpoint) was found to be 519 µM.

For `COc1cnc2c(Nc3cc(F)c(F)c([C@]4(C)C[C@@H](C(F)(F)F)OC(N)=N4)c3)nccc2c1` [Example 179], the IC50 was greater than 400 µM.

The same experiment, now with this note: average; read-out: CatD IC50.
`CC#CCOc1cnc(C(=O)Nc2cc(F)c(F)c([C@]3(C)C[C@@H](C(F)(F)F)OC(N)=N3)c2)c(C)c1` [Example 188, N-(3-((4S,6S)-2-amino-4-methyl-6-(trifluoromethyl)-5,6-dihydro-4H-1,3-oxazin-4-yl)-4,5-difluorophenyl)-5-(but-2-yn-1-yloxy)-3-methylpicolinamide]: the IC50 was found to be 286 µM.

On to `Cc1cc(OCC(F)(F)F)cnc1C(=O)Nc1cc(F)c(F)c([C@]2(C)C[C@@H](C(F)(F)F)OC(N)=N2)c1` [Example 194, N-(3-((4S,6S)-2-amino-4-methyl-6-(trifluoromethyl)-5,6-dihydro-4H-1,3-oxazin-4-yl)-4,5-difluorophenyl)-3-methyl-5-(2,2,2-trifluoroethoxy)picolinamide], for which the IC50 was greater than 400 µM.

Turning to `Cc1nc(OCC(F)(F)F)cnc1C(=O)Nc1cc(F)c(F)c([C@]2(C)C[C@@H](C(F)(F)F)OC(N)=N2)c1` [Example 197, N-(3-((4S,6S)-2-amino-4-methyl-6-(trifluoromethyl)-5,6-dihydro-4H-1,3-oxazin-4-yl)-4,5-difluorophenyl)-3-methyl-5-(2,2,2-trifluoroethoxy)pyrazine-2-carboxamide], the IC50 is greater than 400 µM.

As to `C[C@@]1(c2cc(NC(=O)c3ncc(C(F)F)cc3Cl)cc(F)c2F)C[C@@H](C(F)(F)F)OC(N)=N1` [Example 198, N-(3-((4S,6S)-2-amino-4-methyl-6-(trifluoromethyl)-5,6-dihydro-4H-1,3-oxazin-4-yl)-4,5-difluorophenyl)-3-chloro-5-(difluoromethyl)picolinamide], the IC50 is greater than 400 µM.

Consider `C[C@@]1(c2cc(NC(=O)c3ccc(C(F)F)cn3)cc(F)c2F)C[C@@H](C(F)(F)F)OC(N)=N1` [Example 200, N-(3-((4S,6S)-2-amino-4-methyl-6-(trifluoromethyl)-5,6-dihydro-4H-1,3-oxazin-4-yl)-4,5-difluorophenyl)-5-(difluoromethyl)picolinamide], for which the IC50 amounted to 997 µM.

Turning to `COc1cnc(C(=O)Nc2cc(F)c(F)c([C@]3(C)C[C@@H](C(F)(F)F)OC(N)=N3)c2)c(C)c1` [Example 202, N-(3-((4S,6S)-2-amino-4-methyl-6-(trifluoromethyl)-5,6-dihydro-4H-1,3-oxazin-4-yl)-4,5-difluorophenyl)-5-methoxy-3-methylpicolinamide], the IC50 is 1140 µM.

Regarding `C[C@@]1(c2cc(NC(=O)c3ccc(Cl)cn3)cc(Cl)c2F)C[C@@H](C(F)(F)F)OC(N)=N1` [Example 207, N-(3-((4S,6S)-2-amino-4-methyl-6-(trifluoromethyl)-5,6-dihydro-4H-1,3-oxazin-4-yl)-5-chloro-4-fluorophenyl)-5-chloropicolinamide], the IC50 is 386 µM.

As for `Cc1cc(C#N)cnc1C(=O)Nc1cc(Cl)c(F)c([C@]2(C)C[C@@H](C(F)(F)F)OC(N)=N2)c1` [Example 210, N-(3-((4S,6S)-2-amino-4-methyl-6-(trifluoromethyl)-5,6-dihydro-4H-1,3-oxazin-4-yl)-5-chloro-4-fluorophenyl)-5-cyano-3-methylpicolinamide], the IC50 turned out to be 416 µM.

For `COc1cnc(C(=O)Nc2cc(Cl)c(F)c([C@]3(C)C[C@@H](C(F)(F)F)OC(N)=N3)c2)c(C)n1` [Example 215, N-(3-((4S,6S)-2-amino-4-methyl-6-(trifluoromethyl)-5,6-dihydro-4H-1,3-oxazin-4-yl)-5-chloro-4-fluorophenyl)-5-methoxy-3-methylpyrazine-2-carboxamide], the concentration for half-maximal inhibition (IC50) was greater than 400 µM.

As to `Cc1cc(C(F)F)cnc1C(=O)Nc1cc(C)c(F)c([C@]2(CF)C[C@@H](C(F)(F)F)OC(N)=N2)c1` [Example 216, N-(3-((4S,6S)-2-amino-4-(fluoromethyl)-6-(trifluoromethyl)-5,6-dihydro-4H-1,3-oxazin-4-yl)-4-fluoro-5-methylphenyl)-5-(difluoromethyl)-3-methylpicolinamide], the IC50 is greater than 400 µM.

Consider `Cc1cc(NC(=O)c2ccc(C(F)F)cn2)cc([C@]2(CF)C[C@@H](C(F)(F)F)OC(N)=N2)c1F` [Example 221, N-(3-((4S,6S)-2-amino-4-(fluoromethyl)-6-(trifluoromethyl)-5,6-dihydro-4H-1,3-oxazin-4-yl)-4-fluoro-5-methylphenyl)-5-(difluoromethyl)picolinamide], for which the IC50 was 992 µM.

`Cc1cc(NC(=O)c2ccc(F)cn2)cc([C@]2(CF)C[C@@H](C(F)(F)F)OC(N)=N2)c1F` [Example 223, N-(3-((4S,6S)-2-amino-4-(fluoromethyl)-6-(trifluoromethyl)-5,6-dihydro-4H-1,3-oxazin-4-yl)-4-fluoro-5-methylphenyl)-5-fluoropicolinamide]: the IC50 was found to be 833 µM.

Regarding `COc1ccc(C(=O)Nc2cc(C)c(F)c([C@]3(CF)C[C@@H](C(F)(F)F)OC(N)=N3)c2)nc1` [Example 229, N-(3-((4S,6S)-2-amino-4-(fluoromethyl)-6-(trifluoromethyl)-5,6-dihydro-4H-1,3-oxazin-4-yl)-4-fluoro-5-methylphenyl)-5-methoxypicolinamide], the IC50 was 1120 µM.

Turning to `NC1=N[C@](CF)(c2cc(NC(=O)c3ncc(Cl)cc3F)cc(F)c2F)C[C@@H](C(F)(F)F)O1` [Example 233, N-(3-((4S,6S)-2-amino-4-(fluoromethyl)-6-(trifluoromethyl)-5,6-dihydro-4H-1,3-oxazin-4-yl)-4,5-difluorophenyl)-5-chloro-3-fluoropicolinamide], the IC50 was greater than 400 µM.

As for `C[C@@]1(c2cc(NC(=O)c3ccc(Cl)cn3)cc(F)c2Cl)C[C@@H](C(F)(F)F)OC(N)=N1` [Example 236, N-(3-((4S,6S)-2-amino-4-methyl-6-(trifluoromethyl)-5,6-dihydro-4H-1,3-oxazin-4-yl)-4-chloro-5-fluorophenyl)-5-chloropicolinamide], the IC50 is 408 µM.

`COc1cnc(C(=O)Nc2cc(F)c(Cl)c([C@]3(C)C[C@@H](C(F)(F)F)OC(N)=N3)c2)cn1` [Example 237, N-(3-((4S,6S)-2-amino-4-methyl-6-(trifluoromethyl)-5,6-dihydro-4H-1,3-oxazin-4-yl)-4-chloro-5-fluorophenyl)-5-methoxypyrazine-2-carboxamide]: the IC50 was found to be 194 µM.
